Test results: US9309514B2, “G protein-coupled purinergic receptor Gpr17 mediates orexigenic effects of FoxO1 in AgRP neurons” (THE TRUSTEES OF COLUMBIA UNIVERSITY IN THE CITY OF NEW YORK, priority 2012, dated 2016)

Tests used:
mice [1] = assay: Food intake after ICV (3rd ventricle) injection; type: in vivo
Description: ELISA for leptin, insulin, and glucagon measurements (Millipore), and colorimetric assays for plasma free fatty acids and glycerol (Wako) were used.
The effect of delivering cangrelor into the 3rd ventricle of mice on food intake was studied.

mice [2] = assay: Glucose tolerance test / blood glucose after Gpr17 agonist administration; type: in vivo; conditions: 6 hr fast, test 20 minutes after administration (FIG. 12C)
Experimental: FIG. 12A-12D. […] (A) Satiated mice were injected with saline or Gpr17 agonist LTD4 (n=5-7). Food intake was monitored for the following time course. (B) Locomotor activity counts of satiated mice during daytime within 1.5 hours following administration of Gpr17 agonist LTD4 (n=6). (C) After fasting for 6 hrs, saline or LTD4 were administered to the mice (n=6-7). Glucose tolerance test was performed 20 minutes after the administration. […] Glucose was measured before or 20 minutes after the administration.

AgRP neurons [3] = assay: Immunohistochemistry of pSTAT3, pS6 and pAkt in AgRP or POMC neurons after delivery into the 3rd ventricle
Experimental: Stereotactic manipulations in 3-4 month-old C57BL/6 mice were performed. Cannulae were placed and allowed 1 week for recovery (−1.8 mm anterior and 0 mm lateral to bregma and 5.3 mm below the skull surface). Correct positioning of the cannulae was verified by monitoring drinking activity after angiotensin injection. […] For immunohistochemistry studies, mice 4-5 hr were perfused after refeeding.
To test whether Gpr17 function affects ARH hormonal signaling in vivo, cangrelor was delivered directly into the 3rd ventricle of mice after an overnight fast and the co-localization of pSTAT3, pS6, and pAkt was determined in either POMC or AgRP neurons, identified by fluorescent reporter, after refeeding.

AgRP neurons [4] = assay: Patch-clamp electrophysiology of fluorescently labeled AgRP neurons in brain slices; type: cell-based, mice
Experimental: 300-μm coronal ARH slices were prepared from 6- to 8-week-old mice using ice cold sucrose-based cutting solution (adjusted to pH 7.3) containing (in mM): 10 NaCl, 25 NaHCO3, 195 sucrose, 5 glucose, 2.5 KCl, 1.25 NaH2PO4, 2 Na pyruvate, 0.5 CaCl2, and 7 MgCl2 bubbled continuously with 95% O2 and 5% CO2. Slices were allowed to recover at least 45 minutes at room temperature in recording solution (adjusted to pH 7.3) containing (in mM): 125 NaCl, 5 glucose, 25 NaHCO3, 2.5 KCl, 1.25 NaH2PO4, 2 CaCl2, and 1 MgCl2 bubbled continuously with 95% O2 and 5% CO2 before transferring them to a perfusion chamber for recording. Patch pipettes were pulled to resistances of 7-9 MΩ and filled them with solution (adjusted to pH 7.3) containing 128 K gluconate, 10 KCl, 10 HEPES, 0.1 EGTA, 2 MgCl2, 0.3 Na-GTP, and 3 Mg-ATP. Cells were selected using an upright microscope fitted with fluorescence optics (Nikon) and patched under IR-DIC optics. Electrical access was assessed in the whole-cell recording mode using a small-voltage step-pulse before and at the end of the current clamp recordings. Recordings were discarded in which the series resistance had been >15 MΩ. Current clamp recordings were acquired with no current injection using a MultiClamp 700B amplifier and Clampex data acquisition software (Axon Instruments). Action potential (AP) firing frequency, membrane potential, and AP amplitude using MiniAnalysis (Synaptosoft) were recorded at room temperature and analyzed. Electrophysiological recording to measure mEPSC and mIPSC in brain slices was performed as previously described (Pinto et al., 2004).
The electrophysiological properties of AgRP neurons identified using fluorescent reporters in brain slices from wild-type and Agrp-Foxo1^−/− mice (FIG. 5D-F) were studied. […] Furthermore, insulin suppressed the firing frequency of wild-type cells to ˜35% of basal level, a nearly three-fold reduction. Despite the lower basal firing frequency, insulin further suppressed the firing frequency of knockout neurons, with a 100-fold reduction. Insulin caused a similar reduction in membrane potential in wild-type and knockout cells (˜−20 mV).
Given the favorable metabolic profile of Agrp-Foxo1^−/− mice, experiments were designed to identify FoxO1 targets that mediate its effects and are readily targetable by chemical means. […] Next, Gpr17 regulation in ARH punch biopsies from fasted and refed mice was examined. […] To investigate the function of Gpr17 in AgRP neurons, the electrophysiological properties of fluorescently labeled AgRP neurons in response to the Gpr17 antagonist, cangrelor were tested. […] Therefore, inhibition of Gpr17 can affect the electrical activity of AgRP neurons in an insulin-mimetic fashion, supporting our hypothesis.

Neuro2A (N2A) cells = assay: Insulin signaling (pAkt western blot) in wild type N2A cells treated with or without cangrelor; type: cell-based; conditions: serum starved overnight, stimulated with insulin
Experimental: FIG. 14. Neuro2A (N2A) cells are a suitable model for studying the molecular mechanisms of Gpr17 signaling. Wild type N2A cells (treated with or without cangrelor) were serum starved overnight and stimulated with insulin. Insulin signaling activity was gauged by measuring pAkt by western blot. N2A cells express minimal endogenous Gpr17.
More experiments were conducted to study the in vivo regulation of Gpr17 expression by FoxO1. It was discovered that Knocking out FoxO using Synapsin-Cre in mediobasal hypothalamus (MBH) caused a concomitant reduction of Gpr17, further showing that Gpr17 is the endogenous target of FoxO. FIG. 13, panel A. Moreover, Gpr17 expression was elevated in the hippocampus of insulin resistant diabetic GIRKO mice. FIG. 13, panel B. Further studies of Gpr17 expression showing that it contributes to the causality of diabetes, were conducted using Neuro2A (N2A) cells that express minimal endogenous Gpr17. Wild type N2A cells (treated with or without cangrelor) were serum starved overnight and then stimulated with insulin. Insulin signaling activity was gauged by measuring pAkt by western blot. […] FIG. 14.

[5] = in vivo; cited from earlier work
platelet = conditions: 4 μg/kg per minute IV, in approximately 70% of patients after 15 min; cited from earlier work
mouse Gpr17 = assay: siRNA knockdown of Gpr17 in Gpr17-mCherry stable line (diminished mCherry signal); type: cell-based; conditions: Gpr17-mCherry stable line transfected with RNAi construct
Description: Seven siRNA sequences were designed based on the gene sequence of mouse Gpr17. DNA oligomers were ligated into a MSCV-P2Gm vector and verified by sequencing. The correct clones were used for further evaluation of the effectiveness of each RNAi construct. Gpr17-mCherry-stable line was transfected with each of the seven constructs. The effectiveness of RNAi was scored by the diminished mCherry signal in cells. […] The resultant adenovirus expresses RNAi upon Cre-dependent recombination. Seven oligomer sequences to generate Gpr17 RNAi. The 7 oligomers were ligated into the vector (MSCV-P2Gm) to generate RNAi specific for Gpr17 gene. The sequences are provided as following. The common adaptor sequence is provided, and the targeting siRNA (specific for mouse Gpr17) sequence is highlighted with underline.
In another series of experiments, siRNA sequences that knock down Gpr17 were identified. Seven candidate siRNA sequences conjugated to Gfp (green) and directed against mouse Gpr17 were cloned into a vector and their ability to inhibit Gpr17 expression was determined in Gpr17-mCherry stable line by their effectiveness in diminishing red fluorescence. Seven candidate sequences against mouse Gpr17 were cloned into vector. The resultant adenovirus expresses RNAi upon Cre-dependent recombination. Various degrees of knockdown of Gpr17 were achieved using siRNA.

[6] = delivered into 3rd ventricle after overnight fast, determined after refeeding
[7] = cangrelor treatment (90 nM), same neurons before and after
[8] = 3rd ventricle, overnight fast, refeeding, in a subset of AgRP neurons
[9] = insulin, wild-type AgRP neurons

## CCCCC/C=C\C\C=C/C=C/C=C/[C@@H](SC[C@H](N)C(=O)NCC(=O)O)[C@@H](O)CCCC(=O)O [LTD4]
Mice [1]; satiated mice injected with saline or LTD4 (FIG. 12A)
  food intake: increases food intake
Mice [2]
  glucose tolerance test / neuronal regulation of glucose homeostasis: impairs neuronal regulation of glucose homeostasis
AgRP neurons [3]; [6]
  pSTAT3 content in AgRP neurons: decreased

## CSCCNc1nc(SCCC(F)(F)F)nc2c1ncn2[C@@H]1O[C@H](COP(=O)(O)OP(=O)(O)C(Cl)(Cl)P(=O)(O)O)[C@@H](O)[C@H]1O [cangrelor, [dichloro-[[[(2R,3S,4R,5R)-3,4-dihydroxy-5-[6-(2-methylsulfanylethylamino)-2-(3,3,3-trifluoropropylsulfanyl)purin-9-yl]oxolan-2-yl]methoxy-hydroxyphosphoryl]oxy-hydroxyphosphoryl]methyl]phosphonic acid]
AgRP neurons [4]; [7]
  firing frequency of AgRP neurons: significantly reduced
  membrane potential of AgRP neurons: lower
Mice [1]; Agrp-Foxo1−/− mice, overnight fast, cangrelor into 3rd ventricle
  food intake during refeeding: completely unaffected
Neuro2A (N2A) cells
  insulin signaling (pAkt by western blot): minimal effect
[5]
  plasma half-life: three to six
platelet
  platelet inhibition: 100%
AgRP neurons [3]; 3rd ventricle, overnight fast, refeeding
  pAkt and pS6 in POMC neurons: without effecting detectable changes
AgRP neurons [3]; [8]
  pAkt in AgRP neurons: increased
  pS6 in AgRP neurons: increased
AgRP neurons [3]; [6]
  pSTAT3 content in AgRP neurons: specifically and dramatically increased
  pSTAT3 content in POMC neurons: not in POMC neurons

## insulin: anorexigenic hormone applied to AgRP neurons in brain slices
AgRP neurons [4]; insulin, Agrp-Foxo1−/− (knockout) AgRP neurons
  fold reduction of firing frequency: 100 fold
AgRP neurons [4]; [9]
  firing frequency relative to basal level: ~35 % of basal level
  fold reduction of firing frequency: three
AgRP neurons [4]; insulin, wild-type and knockout cells
  reduction in membrane potential: ~−20 mV

B1: SEQ ID NO. 6: oligomer ligated into MSCV-P2Gm vector to generate RNAi specific for mouse Gpr17 (nucleic acid)
DNA: TGCTGTTGACAGTGAGCGATGGCTTCCTCTTCTATCTGAATAGTGAAGCCACAGATGTATTCAGATAGAAGAGGAAGCCAGTGCCTACTGCCTCGGA
Mouse Gpr17
  effectiveness in knocking down Gpr17 expression (diminishing red fluorescence): most effective

B2: SEQ ID NO. 7: oligomer ligated into MSCV-P2Gm vector to generate RNAi specific for mouse Gpr17 (nucleic acid)
DNA: TGCTGTTGACAGTGAGCGCCCGGATCACCTCCTGCCTCACTAGTGAAGCCACAGATGTAGTGAGGCAGGAGGTGATCCGGTTGCCTACTGCCTCGGA
Mouse Gpr17
  effectiveness in knocking down Gpr17 expression (diminishing red fluorescence): most effective

B3: SEQ ID NO. 9: oligomer ligated into MSCV-P2Gm vector to generate RNAi specific for mouse Gpr17 (nucleic acid)
DNA: TGCTGTTGACAGTGAGCGAAACTGTACCGGGAGAAGGCCTTAGTGAAGCCACAGATGTAAGGCCTTC
Mouse Gpr17
  effectiveness in knocking down Gpr17 expression (diminishing red fluorescence): most effective
